Assays:
MOR = MOR (Rattus norvegicus, UniProt P33535); assay: agonist-stimulated [35S]GTPγS binding, MOR; settings: for efficacy at MOR (in words): [35S]GTPγS assay; for EC50 (nM) MOR: [35S]GTPγS binding, C6-MOR membranes, mean ± SEM, dns: does not stimulate
DOR = DOR (Rattus norvegicus, UniProt P33533); assay: agonist-stimulated [35S]GTPγS binding, DOR; settings: for EC50 (nM) DOR: [35S]GTPγS binding, C6-DOR membranes, dns: does not stimulate
KOR = KOR (Homo sapiens, UniProt P41145); assay: agonist-stimulated [35S]GTPγS binding, KOR; settings: for EC50 (nM) KOR: [35S]GTPγS binding, CHO-KOR membranes, mean ± SEM; for EC50 (nM) KOR / % stimulation KOR: dns: does not stimulate; for % stimulation KOR: percent maximal stimulation relative to standard agonist U69,593 at 10 µM
Chain of KOR (P41145 whole entry): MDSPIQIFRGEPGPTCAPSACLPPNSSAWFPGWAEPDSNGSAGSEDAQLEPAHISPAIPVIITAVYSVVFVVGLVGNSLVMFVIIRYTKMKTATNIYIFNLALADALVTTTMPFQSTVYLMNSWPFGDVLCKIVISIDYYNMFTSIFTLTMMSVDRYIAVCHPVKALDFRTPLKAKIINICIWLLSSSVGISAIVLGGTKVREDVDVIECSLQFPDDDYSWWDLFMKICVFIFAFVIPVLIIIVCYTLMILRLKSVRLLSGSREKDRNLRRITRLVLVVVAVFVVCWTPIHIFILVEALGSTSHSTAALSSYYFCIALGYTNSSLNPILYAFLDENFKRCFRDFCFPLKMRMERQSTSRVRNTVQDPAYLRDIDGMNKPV

Chain of MOR (P33535 whole entry): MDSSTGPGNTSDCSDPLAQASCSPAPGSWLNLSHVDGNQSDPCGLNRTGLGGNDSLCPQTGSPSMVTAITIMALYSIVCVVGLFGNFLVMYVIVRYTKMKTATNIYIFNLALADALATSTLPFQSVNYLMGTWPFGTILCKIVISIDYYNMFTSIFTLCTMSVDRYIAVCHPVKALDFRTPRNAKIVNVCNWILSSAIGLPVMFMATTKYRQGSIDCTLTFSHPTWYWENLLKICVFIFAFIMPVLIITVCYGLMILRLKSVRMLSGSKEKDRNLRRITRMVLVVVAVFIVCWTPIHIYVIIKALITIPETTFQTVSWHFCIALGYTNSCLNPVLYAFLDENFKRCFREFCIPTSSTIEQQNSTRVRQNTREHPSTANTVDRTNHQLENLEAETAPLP
Chain of DOR (P33533 whole entry): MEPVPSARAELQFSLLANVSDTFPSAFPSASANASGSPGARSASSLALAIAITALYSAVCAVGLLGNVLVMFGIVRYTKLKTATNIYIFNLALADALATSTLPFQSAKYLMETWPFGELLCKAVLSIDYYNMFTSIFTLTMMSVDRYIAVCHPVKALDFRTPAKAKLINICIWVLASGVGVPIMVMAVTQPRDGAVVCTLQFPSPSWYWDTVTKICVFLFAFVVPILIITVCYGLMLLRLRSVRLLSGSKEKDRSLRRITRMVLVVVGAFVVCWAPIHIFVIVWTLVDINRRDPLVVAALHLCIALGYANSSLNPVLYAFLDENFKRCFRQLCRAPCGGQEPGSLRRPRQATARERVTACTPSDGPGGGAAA

| Structure (SMILES) | efficacy at MOR (in words) (MOR) | EC50 (nM) MOR (MOR) | EC50 (nM) DOR (DOR) | EC50 (nM) KOR (KOR) | % stimulation KOR (KOR) | efficacy at DOR (in words) (DOR; [35S]GTPγS assay) | efficacy at KOR (in words) (KOR; [35S]GTPγS assay) |
| --- | --- | --- | --- | --- | --- | --- | --- |
| Cc1cc(O)cc(C)c1C[C@H](N)C(=O)N1CCC(Cc2ccccc2)c2ccccc21 (some centres unmarked) [Compound 2] | no notable efficacy | dns | dns | dns | dns | – | – |
| Cc1cc(O)cc(C)c1C[C@H](N)C(=O)N1CCC(Cc2ccccc2)CC1 [Compound 3] | lacked any efficacy | dns | dns | dns | dns | – | – |
| Cc1cc(O)cc(C)c1C[C@H](N)C(=O)N1CCC(CCCc2ccccc2)CC1 [Compound 4] | weak partial agonist | – | dns | dns | dns | – | – |
| Cc1cc(O)cc(C)c1C[C@H](N)C(=O)N1CCN(CCCc2ccccc2)CC1 [Compound 5] | – | – | dns | dns | dns | – | – |
| Cc1cc(O)cc(C)c1C[C@H](N)C(=O)N1CCN(CCCc2cccc3ccccc23)CC1 [Compound 6] | partial agonist profile | – | – | – | dns | – | – |
| Cc1cc(O)cc(C)c1C[C@H](N)C(=O)N1CCN(C/C=C/c2cccc3ccccc23)CC1 [Compound 7] | no efficacy | – | – | – | dns | no efficacy | no efficacy |
| Cc1cc(O)cc(C)c1C[C@H](N)C(=O)N1CCN(CCC(c2ccccc2)c2ccccc2)CC1 [Compound 8] | – | dns | dns | dns | dns | – | – |
| Cc1cc(O)cc(C)c1C[C@H](N)C(=O)N1CCN(CCCCc2ccccc2)CC1 [Compound 9] | – | – | dns | dns | – | – | – |
| Cc1cc(O)cc(C)c1C[C@H](N)C(=O)N1CCN(C/C=C/Cc2ccccc2)CC1 [Compound 10] | – | – | dns | – | – | – | – |
| Cc1cc(O)cc(C)c1C[C@H](N)C(=O)N1CCN(C/C=C\Cc2ccccc2)CC1 [Compound 11] | – | – | dns | – | – | – | – |
| Cc1cc(O)cc(C)c1C[C@H](N)C(=O)N1CCN(CCCCCc2ccccc2)CC1 [Compound 12] | – | – | dns | – | – | – | – |

From publication PMC3919453 (Bioorganic & medicinal chemistry letters, 2013)
